Values quoted from earlier work, collected in US8450379B2, “Methods for treating migraine” (Corcept Therapeutics, Inc., priority 2002, dated 2013).

How the values were obtained:
[1] = target: T1, glucocorticoid (GR) receptors (Homo sapiens, UniProt P04150)
T1 sequence (P04150 1-777): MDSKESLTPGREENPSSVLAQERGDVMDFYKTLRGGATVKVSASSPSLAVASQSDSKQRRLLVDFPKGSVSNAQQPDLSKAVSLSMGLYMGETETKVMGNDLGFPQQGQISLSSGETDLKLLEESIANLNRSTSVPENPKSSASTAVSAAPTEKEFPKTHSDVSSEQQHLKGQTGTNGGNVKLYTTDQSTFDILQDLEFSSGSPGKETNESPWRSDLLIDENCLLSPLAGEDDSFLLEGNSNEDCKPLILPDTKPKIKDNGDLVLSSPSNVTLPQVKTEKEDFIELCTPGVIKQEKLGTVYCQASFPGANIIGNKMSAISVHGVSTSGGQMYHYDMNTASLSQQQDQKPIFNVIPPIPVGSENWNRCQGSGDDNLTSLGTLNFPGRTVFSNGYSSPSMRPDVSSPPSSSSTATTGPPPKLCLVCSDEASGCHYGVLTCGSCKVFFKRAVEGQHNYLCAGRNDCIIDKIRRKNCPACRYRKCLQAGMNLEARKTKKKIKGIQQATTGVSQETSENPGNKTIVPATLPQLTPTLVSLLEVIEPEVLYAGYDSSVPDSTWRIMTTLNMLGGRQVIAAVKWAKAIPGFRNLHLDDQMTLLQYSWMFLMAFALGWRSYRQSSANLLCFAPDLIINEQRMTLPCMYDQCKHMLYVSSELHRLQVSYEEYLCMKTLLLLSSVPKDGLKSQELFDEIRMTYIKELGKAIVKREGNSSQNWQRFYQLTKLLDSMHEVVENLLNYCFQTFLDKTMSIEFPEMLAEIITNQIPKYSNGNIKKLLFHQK

[2] = target: T2, Mineralocorticoid receptors (MRs) (Homo sapiens, UniProt P08235); conditions: MR versus GR
T2 sequence (P08235 1-984): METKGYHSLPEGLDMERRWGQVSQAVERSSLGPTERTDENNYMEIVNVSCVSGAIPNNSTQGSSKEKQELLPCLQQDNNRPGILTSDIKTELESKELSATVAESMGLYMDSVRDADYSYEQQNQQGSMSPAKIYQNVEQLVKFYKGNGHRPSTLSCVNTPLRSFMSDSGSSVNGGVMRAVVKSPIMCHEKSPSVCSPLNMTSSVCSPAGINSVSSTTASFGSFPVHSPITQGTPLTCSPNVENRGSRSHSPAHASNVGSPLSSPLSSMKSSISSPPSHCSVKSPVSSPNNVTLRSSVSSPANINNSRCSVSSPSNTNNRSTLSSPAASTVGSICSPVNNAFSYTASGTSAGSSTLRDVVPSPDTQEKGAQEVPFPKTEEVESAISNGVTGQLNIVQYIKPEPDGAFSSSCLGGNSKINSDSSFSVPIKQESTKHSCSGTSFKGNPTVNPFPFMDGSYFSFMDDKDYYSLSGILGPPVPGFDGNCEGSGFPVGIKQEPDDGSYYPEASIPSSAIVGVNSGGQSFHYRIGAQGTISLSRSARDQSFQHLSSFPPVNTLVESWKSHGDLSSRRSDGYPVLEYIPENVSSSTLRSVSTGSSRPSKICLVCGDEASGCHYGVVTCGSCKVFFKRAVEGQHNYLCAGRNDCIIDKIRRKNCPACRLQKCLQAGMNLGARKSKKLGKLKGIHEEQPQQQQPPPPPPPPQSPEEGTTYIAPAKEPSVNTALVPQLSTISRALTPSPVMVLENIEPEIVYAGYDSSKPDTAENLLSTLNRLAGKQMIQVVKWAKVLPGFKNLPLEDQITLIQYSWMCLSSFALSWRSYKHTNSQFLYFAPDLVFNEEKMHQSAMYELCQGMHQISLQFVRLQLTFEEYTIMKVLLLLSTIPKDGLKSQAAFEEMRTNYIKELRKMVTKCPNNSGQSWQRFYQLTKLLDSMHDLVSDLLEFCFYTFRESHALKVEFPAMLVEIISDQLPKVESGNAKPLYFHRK

progesterone receptors = target: T3, progesterone receptors (Homo sapiens, UniProt P06401)
T3 sequence (P06401 1-933): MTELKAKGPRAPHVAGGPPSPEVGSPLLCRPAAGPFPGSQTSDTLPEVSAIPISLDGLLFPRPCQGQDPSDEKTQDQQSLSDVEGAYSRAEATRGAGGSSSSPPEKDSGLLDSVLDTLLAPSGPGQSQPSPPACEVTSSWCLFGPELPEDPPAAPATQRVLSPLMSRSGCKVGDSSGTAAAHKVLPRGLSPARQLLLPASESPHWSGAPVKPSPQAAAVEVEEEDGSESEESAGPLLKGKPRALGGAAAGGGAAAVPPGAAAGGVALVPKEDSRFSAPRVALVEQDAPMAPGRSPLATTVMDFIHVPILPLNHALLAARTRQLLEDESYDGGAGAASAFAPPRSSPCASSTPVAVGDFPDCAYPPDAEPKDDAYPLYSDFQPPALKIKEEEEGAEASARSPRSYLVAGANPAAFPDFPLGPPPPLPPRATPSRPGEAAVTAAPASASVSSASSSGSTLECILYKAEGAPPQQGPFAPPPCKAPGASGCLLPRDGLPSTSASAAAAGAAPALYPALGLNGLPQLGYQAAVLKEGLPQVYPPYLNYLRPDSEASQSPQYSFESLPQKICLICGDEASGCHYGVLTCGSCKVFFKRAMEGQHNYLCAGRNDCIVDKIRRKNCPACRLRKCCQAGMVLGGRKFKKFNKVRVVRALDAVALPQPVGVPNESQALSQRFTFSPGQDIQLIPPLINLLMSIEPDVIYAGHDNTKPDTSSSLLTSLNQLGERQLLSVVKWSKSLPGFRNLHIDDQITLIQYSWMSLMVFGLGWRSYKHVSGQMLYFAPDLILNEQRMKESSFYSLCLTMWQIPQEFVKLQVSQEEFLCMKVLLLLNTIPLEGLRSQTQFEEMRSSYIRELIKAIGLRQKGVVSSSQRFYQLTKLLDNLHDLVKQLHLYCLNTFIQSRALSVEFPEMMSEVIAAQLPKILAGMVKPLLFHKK

[3] = one study (Kawai)

affinity of MR for cortisol relative to GR binding of glucocorticoids [2] | SMILES | antagonism of glucocorticoid (GR) receptor [1] | antagonism of progesterone receptor (progesterone receptors) | fraction of the daily dose excreted in the urine [3]
– | CC#C[C@]1(O)CC[C@H]2[C@@H]3CCC4=CC(=O)CCC4=C3[C@@H](c3ccc(OCCN(C)C)cc3)C[C@@]21C [RU009, 11β-(4-dimethylaminoethoxyphenyl)-17α-propynyl-17β-hydroxy-4,9-estradien-3-one] | GR antagonist effects | – | –
ten-fold higher affinity | C[C@]12CCC(=O)C=C1CC[C@@H]1[C@@H]2[C@@H](O)C[C@@]2(C)[C@H]1CC[C@]2(O)C(=O)CO [cortisol] | – | – | –
– | CC#C[C@]1(O)CC[C@H]2[C@@H]3CCC4=CC(=O)CCC4=C3[C@@H](c3ccc(N(C)C)cc3)C[C@@]21C [Mifepristone, (11β,17β) 11[4 (dimethylamino)phenyl]-17 hydroxy-17 (1 propynyl)estra-4,9 dien-3 one] | powerful antagonist | powerful antagonist | less than 0.5 % of the daily dose
